The source of these data is patent US8076338B2, “Kinase modulators and methods of use” (Exelixis, Inc., priority 2004, dated 2011).

Where two headings read alike, the source gives them in different places.

For one experiment, the target named is AktK (Homo sapiens, UniProt P31749). The experiment can be described thus: Luciferase-coupled chemiluminescence kinase assay (ATP consumption). Type of experiment: biochemical. The conditions noted are these: read-out: AKT-1 IC50. Here is the method: (§1) One measure of inhibition is Ki. […] The Ki for a compound is determined from the IC50 based on three assumptions. First, only one compound molecule binds to the enzyme and there is no cooperativity. […] Third, the enzymatic rate of the enzyme-inhibitor complex is zero. The rate data (i.e. compound concentration) are fitted to the equation: […]
Sequence of AktK (P31749 whole entry): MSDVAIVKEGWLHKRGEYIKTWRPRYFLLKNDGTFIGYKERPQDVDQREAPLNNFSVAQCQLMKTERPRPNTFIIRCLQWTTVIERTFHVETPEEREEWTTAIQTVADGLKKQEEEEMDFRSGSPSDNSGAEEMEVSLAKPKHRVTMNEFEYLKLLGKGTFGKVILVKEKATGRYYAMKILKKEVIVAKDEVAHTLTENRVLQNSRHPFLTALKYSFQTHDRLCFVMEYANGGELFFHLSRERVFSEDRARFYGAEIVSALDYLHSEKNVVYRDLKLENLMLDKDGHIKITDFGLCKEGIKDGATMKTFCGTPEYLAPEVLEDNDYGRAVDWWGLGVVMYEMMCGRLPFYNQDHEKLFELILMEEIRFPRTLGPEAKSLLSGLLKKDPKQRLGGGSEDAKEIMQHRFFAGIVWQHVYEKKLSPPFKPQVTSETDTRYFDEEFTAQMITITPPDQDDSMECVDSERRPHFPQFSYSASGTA
(§2) Luciferase-Coupled Chemiluminescence Assay Protocol
(§3) Kinase activity is measured as the percent of ATP consumed following the kinase reaction using luciferase-luciferin-coupled chemiluminescence. Reactions were conducted in 384-well white, medium binding microtiter plates (Greiner). Kinase reactions were initiated by combining test compounds, ATP and kinase in a 20 uL volume. The reaction mixture was incubated at ambient temperature for 3 hrs. For p70S6K and/or AktK, 2.5-5 nM of the enzyme was pre-incubated with compound in 20 mM Tris pH 7.5, 10 mM MgCl2, 0.03% TX-100, and 1 mM DTT for 30 minutes at room temperature. Following the kinase reaction, a 20 μL aliquot of luciferase-luciferin mix was added and the chemiluminescence signal measured using a Victor^2 plate reader (Perkin Elmer). The luciferase-luciferin mix contained 50 mM HEPES, pH 7.8, 67 mM oxalic acid (pH 7.8), 5 (or 50) mM DTT, 0.4% Triton X-100, 0.25 mg/mL coenzyme A, 63 μM AMP, 28 μg/1 mL luciferin and 40,000 units/mL luciferase. Total ATP consumption was limited to 25-60% and the IC50 values correlate well with those determined by radiometric assays.

The next experiment has as its target p70S6K (Homo sapiens, UniProt P23443). Described as above. The class given is biochemical. Here is the method: as §1, §2, §3

Sequence of p70S6K (P23443 whole entry): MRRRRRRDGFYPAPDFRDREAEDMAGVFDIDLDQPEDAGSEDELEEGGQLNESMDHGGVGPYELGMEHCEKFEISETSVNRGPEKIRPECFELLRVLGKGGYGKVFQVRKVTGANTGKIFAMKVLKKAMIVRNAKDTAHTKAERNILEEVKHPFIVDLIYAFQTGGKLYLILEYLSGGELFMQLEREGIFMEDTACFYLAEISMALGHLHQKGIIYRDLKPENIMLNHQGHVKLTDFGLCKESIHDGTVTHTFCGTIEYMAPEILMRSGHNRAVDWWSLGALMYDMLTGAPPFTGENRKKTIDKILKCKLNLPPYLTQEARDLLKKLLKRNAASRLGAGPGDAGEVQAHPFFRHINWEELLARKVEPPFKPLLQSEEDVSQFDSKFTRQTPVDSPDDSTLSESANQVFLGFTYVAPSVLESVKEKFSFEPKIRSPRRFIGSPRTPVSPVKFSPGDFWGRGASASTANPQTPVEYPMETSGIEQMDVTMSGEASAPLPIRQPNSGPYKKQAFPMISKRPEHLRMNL

What is called IC50 is the concentration at which inhibition is half-maximal. `CCN(CC)CCCc1cc(Cl)cc(N2CCN(c3ncnc4[nH]nc(C(F)(F)F)c34)CC2)c1C` [Entry 87, 3-(5-chloro-2-methyl-3-{4-[3-(trifluoromethyl)-1H-pyrazolo[3,4-d]pyrimidin-4-yl]piperazin-1-yl}phenyl)-N,N-diethylpropan-1-amine]: the IC50 at AktK (Table 1, class symbols per key) was 100 to 1000 nM; at p70S6K (Table 1, class symbols per key), under 100 nM.

As for `CCc1n[nH]c2ncnc(N3CCN(c4ncnc5cc(OC)c(OC)cc45)CC3)c12` [Entry 169, 4-[4-(3-ethyl-1H-pyrazolo[3,4-d]pyrimidin-4-yl)piperazin-1-yl]-6,7-bis(methyloxy)quinazoline], the IC50 on AktK (Table 1, class symbols per key) was at least 10000 nM; against p70S6K (Table 1, class symbols per key), 1000 to 10000 nM.

Regarding `Cc1ccc(N2CCN(c3ncnc4[nH]nc(Br)c34)CC2)cc1CCCN1CCCC1` [Entry 67, 3-bromo-4-{4-[4-methyl-3-(3-pyrrolidin-1-ylpropyl)phenyl]piperazin-1-yl}-1H-pyrazolo[3,4-d]pyrimidine], the IC50 on AktK (Table 1, class symbols per key) lay within 1000 to 10000 nM; on p70S6K (Table 1, class symbols per key), 100 to 1000 nM.

For the compound `Cc1c(NCCN2CCCC2)cc(C(=O)Nc2ccccc2)cc1N1CCN(c2ncnc3[nH]nc(Br)c23)CC1` [Entry 194, 3-[4-(3-bromo-1H-pyrazolo[3,4-d]pyrimidin-4-yl)piperazin-1-yl]-4-methyl-N-phenyl-5-[(2-pyrrolidin-1-ylethyl)amino]benzamide], the 50% inhibitory concentration (IC50) at AktK (Table 1, class symbols per key) was under 100 nM; at p70S6K (Table 1, class symbols per key) it was under 100 nM.

`CCc1n[nH]c2ncnc(N3CCN(c4cc(Cl)cc(CN(C)C)c4OC)CC3)c12` [Entry 377, 1-[5-chloro-3-[4-(3-ethyl-1H-pyrazolo[3,4-d]pyrimidin-4-yl)piperazin-1-yl]-2-(methyloxy)phenyl]-N,N-dimethylmethanamine]: the IC50 at AktK was at least 10000 nM; on p70S6K, 100 to 1000 nM.

Consider `CCc1n[nH]c2ncnc(N3CCN(c4cc(F)cc(Br)c4Cl)CC3)c12` [Entry 114, 4-[4-(3-bromo-2-chloro-5-fluorophenyl)piperazin-1-yl]-3-ethyl-1H-pyrazolo[3,4-d]pyrimidine], for which the IC50 at AktK (Table 1, class symbols per key) is at least 10000 nM; at p70S6K (Table 1, class symbols per key), 100 to 1000 nM.

For `Cc1c(OCCN2CCN(C)CC2)cc(Cl)cc1N1CCN(c2ncnc3[nH]nc(Br)c23)CC1` [Entry 72, 3-bromo-4-[4-(5-chloro-2-methyl-3-{[2-(4-methylpiperazin-1-yl)ethyl]oxy}phenyl)piperazin-1-yl]-1H-pyrazolo[3,4-d]pyrimidine], the IC50 on AktK (Table 1, class symbols per key) is 100 to 1000 nM; on p70S6K (Table 1, class symbols per key) it was under 100 nM.

As to `CCCC(=O)c1cc(NCCN2CCCC2)c(C)c(N2CCN(c3ncnc4[nH]nc(Br)c34)CC2)c1` [Entry 248, 1-{3-[4-(3-bromo-1H-pyrazolo[3,4-d]pyrimidin-4-yl)piperazin-1-yl]-4-methyl-5-[(2-pyrrolidin-1-ylethyl)amino]phenyl}butan-1-one], the IC50 was under 100 nM at AktK (Table 1, class symbols per key) and under 100 nM at p70S6K (Table 1, class symbols per key).

Regarding `CCc1n[nH]c2ncnc(N3CCN(c4cc(Cl)cc(N5CCOCC5)c4C)CC3)c12` [Entry 361, 4-[4-(5-chloro-2-methyl-3-morpholin-4-ylphenyl)piperazin-1-yl]-3-ethyl-1H-pyrazolo[3,4-d]pyrimidine], the IC50 fell in the range of 1000 to 10000 nM on AktK and 100 to 1000 nM on p70S6K.

Take `COC(=O)c1ccc(C)c(N2CCN(c3ncnc4[nH]nc(Br)c34)CC2)c1` [Entry 179, methyl 3-[4-(3-bromo-1H-pyrazolo[3,4-d]py-rimidin-4-yl)piperazin-1-yl]-4-methylbenzoate]: the IC50 was under 100 nM at AktK (Table 1, class symbols per key) and under 100 nM against p70S6K (Table 1, class symbols per key).

On to `CC(=O)c1cc(NCCN2CCCC2)c(C)c(N2CCN(c3ncnc4[nH]nc(Br)c34)CC2)c1` [Entry 252, 1-{3-[4-(3-bromo-1H-pyrazolo[3,4-d]pyrimidin-4-yl)piperazin-1-yl]-4-methyl-5-[(2-pyrrolidin-1-ylethyl)amino]phenyl}ethanone], for which the IC50 on AktK (Table 1, class symbols per key) was under 100 nM; against p70S6K (Table 1, class symbols per key), under 100 nM.

Take `Cc1c(OCCCN2CCCCC2)cc(Cl)cc1N1CCN(c2ncnc3[nH]nc(C(F)(F)F)c23)CC1` [Entry 69, 4-(4-{5-chloro-2-methyl-3-[(3-piperidin-1-ylpropyl)oxy]phenyl}piperazin-1-yl)-3-(trifluoromethyl)-1H-pyrazolo[3,4-d]pyrimidine]: the half-inhibitory concentration (IC50) on AktK (Table 1, class symbols per key) was 100 to 1000 nM; on p70S6K (Table 1, class symbols per key), under 100 nM.

In the case of `Cc1c(OCCC2CCN(C)CC2)cc(Cl)cc1N1CCN(c2ncnc3[nH]nc(C(F)(F)F)c23)CC1` [Entry 91, 4-[4-(5-chloro-2-methyl-3-{[2-(1-methylpiperidin-4-yl)ethyl]oxy}phenyl)piperazin-1-yl]-3-(tri-fluoromethyl)-1H-pyrazolo[3,4-d]pyrimidine], the IC50 at AktK (Table 1, class symbols per key) was 100 to 1000 nM; against p70S6K (Table 1, class symbols per key), under 100 nM.

As for `Clc1cccc(N2CCN(c3ncnc4[nH]nc(Br)c34)CC2)c1` [Entry 134, 3-bromo-4-[4-(3-chlorophenyl)piperazin-1-yl]-1H-pyrazolo[3,4-d]pyrimidine], the IC50 was at least 10000 nM at AktK (Table 1, class symbols per key) and under 100 nM against p70S6K (Table 1, class symbols per key).

For the compound `Cc1ccc(Cl)cc1N1CCN(c2ncnc3[nH]nc(Br)c23)CC1` [Entry 329, 3-bromo-4-[4-(5-chloro-2-methylphenyl)piperazin-1-yl]-1H-pyrazolo[3,4-d]pyrimidine], the figures for the IC50 on AktK and on p70S6K were 100 to 1000 nM and under 100 nM, respectively.

In the case of `CCCC(F)(F)c1cc(NCCN2CCCC2)c(C)c(N2CCN(c3ncnc4[nH]nc(Br)c34)CC2)c1` [Entry 277, 3-[4-(3-bromo-1H-pyrazolo[3,4-d]pyrimidin-4-yl)piperazin-1-yl]-5-(1,1-difluorobutyl)-2-methyl-N-(2-pyrrolidin-1-ylethyl)aniline], the IC50 is under 100 nM on AktK (Table 1, class symbols per key) and under 100 nM against p70S6K (Table 1, class symbols per key).

In the case of `c1ccc(N2CCN(c3ncnc4[nH]ncc34)CC2)cc1` [Entry 297, 4-(4-phenylpiperazin-1-yl)-1H-pyrazolo[3,4-d]pyrimidine], the results for the IC50 on AktK and on p70S6K were at least 10000 nM and 100 to 1000 nM, respectively.

On to `FC(F)(F)c1ccnc(N2CCN(c3ncnc4[nH]nc(Br)c34)CC2)n1` [Entry 118, 3-bromo-4-{4-[4-(trifluoromethyl)pyrimidin-2-yl]piperazin-1-yl}-1H-pyrazolo[3,4-d]pyrimidine], for which the IC50 at AktK (Table 1, class symbols per key) was at least 10000 nM; at p70S6K (Table 1, class symbols per key) it was 100 to 1000 nM.

For “N′-{3-[4-(3-bromo-1H-pyrazolo[3,4-d]pyrimidin-4-yl)piperazin-1-yl]-2-methyl-5-[(2-methyl-propyl)oxy]phenyl}-N,N-diethylethane-1,2-diamine [Entry 185]”, the IC50 is under 100 nM on AktK (Table 1, class symbols per key) and under 100 nM against p70S6K (Table 1, class symbols per key).

In the case of “4-[4-(5-chloro-2-methylphenyl)piperazin-1-yl]-1H-pyrazolo[3,4-d]pyrimidin-6-amine [Entry 156]”, the IC50 at AktK (Table 1, class symbols per key) is at least 10000 nM; against p70S6K (Table 1, class symbols per key), 1000 to 10000 nM.

On to `Cc1c(OCCN2CCCC2)cc(Cl)cc1N1CCN(c2ncnc3[nH]nc(C(F)(F)F)c23)CC1` [Entry 39, 4-(4-{5-chloro-2-methyl-3-[(2-pyrrolidin-1-ylethyl)oxy]phenyl}piperazin-1-yl)-3-(trifluoromethyl)-1H-pyrazolo[3,4-d]pyrimidine], for which the IC50 was 100 to 1000 nM on AktK (Table 1, class symbols per key) and under 100 nM on p70S6K (Table 1, class symbols per key).

`C#Cc1cc(NCCN2CCCC2)c(C)c(N2CCN(c3ncnc4[nH]nc(Br)c34)CC2)c1` [Entry 237, 3-[4-(3-bromo-1H-pyrazolo[3,4-d]pyrimidin-4-yl)piperazin-1-yl]-5-ethynyl-2-methyl-N-(2-pyrrolidin-1-ylethyl)aniline]: the IC50 at AktK (Table 1, class symbols per key) was under 100 nM; against p70S6K (Table 1, class symbols per key) it was under 100 nM.

Regarding `CCc1n[nH]c2ncnc(N3CCN(c4cc(Cl)cc(C(=O)OCCN(C)C)c4OC)CC3)c12` [Entry 376, 2-(dimethylamino)ethyl 5-chloro-3-[4-(3-ethyl-1H-pyrazolo[3,4-d]pyrimidin-4-yl)piperazin-1-yl]-2-(methyloxy)benzoate], the results for the 50% inhibitory concentration (IC50) at AktK and at p70S6K were 1000 to 10000 nM and under 100 nM, respectively.

Take `CCc1n[nH]c2ncnc(N3CCN(c4cccc(Cl)c4)CC3C(=O)NC)c12` (centres unmarked) [Entry 362, 4-(3-chlorophenyl)-1-(3-ethyl-1H-pyrazolo[3,4-d]pyrimidin-4-yl)-N-methylpiperazine-2-carboxamide]: on p70S6K, the IC50 lay in the range of 1000 to 10000 nM.

Compound `CC(C)=CCc1n[nH]c2ncnc(N3CCN(c4cc(Cl)ccc4C)CC3)c12` [Entry 347, 4-[4-(5-chloro-2-methylphenyl)piperazin-1-yl]-3-(3-methylbut-2-en-1-yl)-1H-pyrazolo[3,4-d]pyrimidine] had an IC50 at p70S6K of under 100 nM.

In turn, `Cc1ccccc1N1CCN(c2ncnc3[nH]nc(C)c23)CC1` [Entry 319, 3-methyl-4-[4-(2-methylphenyl)piperazin-1-yl]-1H-pyrazolo[3,4-d]pyrimidine] came in with an IC50 against p70S6K of under 100 nM.

At p70S6K, `Cc1ccc(Cl)cc1N1CCN(c2ncnc3[nH]nc(-c4ccc(OCC5CCNCC5)cc4)c23)CC1` [Entry 359, 4-[4-(5-chloro-2-methylphenyl)piperazin-1-yl]-3-{4-[(piperidin-4-ylmethyl)oxy]phenyl}-1H-pyrazolo[3,4-d]pyrimidine] returned a concentration for half-maximal inhibition (IC50) of 100 to 1000 nM.
